According to the NIST ThermoML archive (doi:10.1016/j.jct.2019.06.014):

Conditions: 101.33 kPa, Liquid, transient hot wire

CCO [ethanol]
Conditions	thermal conductivity [W/m/K]
276.51 K	0.1719
287.55 K	0.1677
297.25 K	0.1645
307.16 K	0.1617

CCCCCC(=O)OCC [ethyl hexanoate]
Conditions	thermal conductivity [W/m/K]
254.29 K	0.1474
264.08 K	0.1447
274.02 K	0.1429
283.95 K	0.1398
293.74 K	0.1375
303.7 K	0.1353
313.76 K	0.1323
323.67 K	0.13
333.63 K	0.1268
343.56 K	0.1242
353.55 K	0.1216
363.41 K	0.1191
373.4 K	0.1172
383.37 K	0.1153

O [water]
Conditions	thermal conductivity [W/m/K]
299.55 K	0.613
309.83 K	0.6313
319.56 K	0.6399
332.53 K	0.6555
339.33 K	0.657
349.41 K	0.6723

CCCC(=O)OCC [ethyl butanoate]
Conditions	thermal conductivity [W/m/K]
268.57 K	0.1471
273.61 K	0.1446
278.63 K	0.1423
283.58 K	0.1408
288.65 K	0.1385
293.58 K	0.1374
298.53 K	0.1357
303.56 K	0.1339
308.67 K	0.132
313.49 K	0.1311
318.61 K	0.1293
323.42 K	0.1282
328.48 K	0.1264
333.46 K	0.1249
338.5 K	0.1234
343.51 K	0.1214
348.54 K	0.12
353.36 K	0.1192
358.57 K	0.1173
363.52 K	0.1163

CCOC(C)=O [ethyl acetate]
Conditions	thermal conductivity [W/m/K]
249.13 K	0.1618
253.89 K	0.1602
260.17 K	0.1574
268.04 K	0.154
274.35 K	0.152
281.34 K	0.1491
285.31 K	0.1472
290.42 K	0.1451
295.44 K	0.1429
298.52 K	0.1414
303.53 K	0.1396
308.44 K	0.1378
313.45 K	0.1361
318.4 K	0.1346
323.25 K	0.1324
328.39 K	0.1308
333.37 K	0.1288
338.34 K	0.1273
343.27 K	0.1257
345.43 K	0.1245
348.46 K	0.1239

CCOC(=O)CC [ethyl propanoate]
Conditions	thermal conductivity [W/m/K]
263.55 K	0.1547
268.41 K	0.1531
270.94 K	0.152
278.51 K	0.1474
283.51 K	0.1447
288.56 K	0.143
293.54 K	0.1408
296.36 K	0.1404
301.4 K	0.1384
306.51 K	0.1365
311.34 K	0.1348
316.45 K	0.1332
321.47 K	0.1314
326.44 K	0.13
331.53 K	0.128
336.4 K	0.1264
341.36 K	0.125
346.42 K	0.1231
351.35 K	0.1219
356.28 K	0.1208

CCCCC(=O)OCC [ethyl pentanoate]
Conditions	thermal conductivity [W/m/K]
249.21 K	0.1501
263.9 K	0.1458
273.5 K	0.1433
283.8 K	0.1396
288.74 K	0.1389
289.42 K	0.1377
293.69 K	0.1369
298.79 K	0.1357
303.69 K	0.1344
308.61 K	0.1328
313.74 K	0.1314
318.49 K	0.1301
323.74 K	0.1282
328.62 K	0.1268
333.51 K	0.1256
338.47 K	0.1241
343.55 K	0.1228
348.55 K	0.1216
353.49 K	0.1201
358.46 K	0.1184
363.57 K	0.1177
